Structures can show the parent of a compound that is named as a salt.
Experiments:
Type in all cases: physicochemical
[1] = Fluorescence lifetime, time-correlated single photon counting (excitation 500 nm, detection 550 nm); settings: excited at 500 nm, detection at 550 nm
Method: FIG. 2 is a plot showing the fluorescence lifetimes of certain dyes according to the invention. Fluorescence lifetimes of a range of dyes were determined by a time-correlated single photon counting technique using an Edinburgh Instruments FL900 CDT Time-Resolved Fluorometer. Samples were excited at 500 nm using a hydrogen-filled flashlamp. Detection was at 550 nm.

[2] = Fluorescence of the dinitro dye in solvents; settings: in DMF, DMSO and methanol
[3] = Fluorescence lifetimes of dye and its ovalbumin conjugate in PBS
Method: The fluorescence lifetimes of 6-{7,14-dioxo-2,9-disulpho-7,14-dihydro-12H-quino[2,3-b]acridin-5-yl}hexanoic acid and its conjugate with ovalbumin (Conjugate A) was determined in PBS.

CCCCCCn1c2ccc(Br)cc2c(=O)c2cc3c(cc21)c(=O)c1cc(Br)ccc1n3CCCCCC [2,9-Dibromo-5,12-di-n-hexylquinacridone, 2,9-dibromo-5,12-dihexylquinacridone]
Lifetime ([1]; solvent CH2Cl2/MeOH): 16.9 nsec

O=c1c2cc(S(=O)(=O)O)ccc2[nH]c2cc3c(=O)c4cc(S(=O)(=O)O)ccc4[nH]c3cc12 [2,9-Quinacridone disulphonic acid, Quinacridone-2,9-disulphonic acid, (di-potassium salt)]
Lifetime ([1]; solvent water): 20.6 nsec

CCCCCCn1c2ccccc2c(=O)c2cc3c(cc21)c(=O)c1cc(Br)ccc1n3CCCCCC [2-Bromo-5,12-di-n-hexylquinacridone, 2-Bromo-5,12-dihexylquinacridone]
Lifetime ([1]; solvent CH2Cl2/MeOH): 20.4 nsec

CCCCCCn1c2ccccc2c(=O)c2cc3c(cc21)c(=O)c1ccccc1n3CCCCCC [5,12-Di-n-hexylquinacridone, 5,12-Dihexylquinacridone]
Lifetime ([1]; solvent CH2Cl2/MeOH): 26.5 nsec

CCOC(=O)CCCCCn1c2ccc(Cl)cc2c(=O)c2cc3c(cc21)c(=O)c1cc(Cl)ccc1n3CCCCCC(=O)OCC [6-{2,9-Dichloro-12-(5-carboxypentyl)-7,14-dioxo-7,14-dihydro-12H-quino[2,3-b]acridin-5-yl}hexanoic acid, diethyl ester]
Lifetime ([1]; solvent MeOH): 22.3 nsec

CCOC(=O)CCCCCn1c2ccc(F)cc2c(=O)c2cc3c(cc21)c(=O)c1cc(F)ccc1n3CCCCCC(=O)OCC [6-{2,9-Difluoro-12-(5-carboxypentyl)-7,14-dioxo-7,14-dihydro-12H-quino[2,3-b]acridin-5-yl}hexanoic acid, diethyl ester]
Lifetime ([1]; solvent MeOH): 21.4 nsec

CCOC(=O)CCCCCn1c2ccc(OC)cc2c(=O)c2cc3c(cc21)c(=O)c1cc(OC)ccc1n3CCCCCC(=O)OCC [6-{2,9-Dimethoxy-12-(5-carboxypentyl)-7,14-dioxo-7,14-dihydro-12H-quino[2,3-b]acridin-5-yl}hexanoic acid, diethyl ester]
Lifetime ([1]; solvent EtOH): 14.0 nsec

CCOC(=O)CCCCCn1c2ccc([N+](=O)[O-])cc2c(=O)c2cc3c(cc21)c(=O)c1cc([N+](=O)[O-])ccc1n3CCCCCC(=O)OCC [6-{2,9-Dinitro-12-(5-carboxypentyl)-7,14-dioxo-7,14-dihydro-12H-quino[2,3-b]acridin-5-yl}hexanoic acid, diethyl ester]
Lifetime ([1]; solvent CH2Cl2): 17.0 nsec | Fluorescence [2]: very weak or is non-fluorescent

CCOC(=O)CCCCCn1c2ccc(Br)cc2c(=O)c2cc3c(cc21)c(=O)c1cc(Br)ccc1n3CCCCCC(=O)OCC [6-{2,9-dibromo-12-(5-carboxypentyl)-7,14-dioxo-7,14-dihydro-12H-quino[2,3-b]acridin-5-yl}hexanoic acid, diethyl ester]
Lifetime ([1]; solvent water): 18.0 nsec

CCOC(=O)CCCCCn1c2ccc(C)cc2c(=O)c2cc3c(cc21)c(=O)c1cc(C)ccc1n3CCCCCC(=O)OCC [6-{2,9-dimethyl-12-(5-carboxypentyl)-7,14-dioxo-7,14-dihydro-12H-quino[2,3-b]acridin-5-yl}hexanoic acid, diethyl ester]
Lifetime ([1]; solvent MeOH): 21.9 nsec

O=C(O)CCCCCn1c2ccc(S(=O)(=O)O)cc2c(=O)c2cc3[nH]c4ccc(S(=O)(=O)O)cc4c(=O)c3cc21 [6-{7,14-Dioxo-2,9-disulpho-7,14-dihydro-12H-quino[2,3-b]acridin-5-yl}hexanoic acid]
Lifetime (nsec) [3]: 20.1 nsec | Lifetime ([1]; solvent water): 20.1 nsec

CCn1c2ccc(S(=O)(=O)O)cc2c(=O)c2cc3c(cc21)c(=O)c1cc(S(=O)(=O)O)ccc1n3CCCCCC(=O)O [6-{12-ethyl-7,14-dioxo-2,9-disulpho-7,14-dihydro-12H-quino[2,3-b]acridin-5-yl}hexanoic acid]
Lifetime ([1]; solvent water): 22.7 nsec

O=c1c2cc3[nH]c4c(S(=O)(=O)O)cc(S(=O)(=O)O)cc4c(=O)c3cc2[nH]c2c(S(=O)(=O)O)cc(S(=O)(=O)O)cc12 [Quinacridone-2,4,9,11-tetrasulphonic acid (tetra-potassium salt)]
Lifetime ([1]; solvent water): 22.1 nsec

O=c1c2ccccc2[nH]c2cc3c(=O)c4ccccc4[nH]c3cc12 [Quinacridone]
Lifetime ([1]; solvent DMSO): 22 nsec

Reference: US7335771B2, “Quinacridone derivatives as labelling reagents for fluorescence detection of biological materials” (GE Healthcare UK Limited, priority 2001, dated 2008)
